# According to publication PMC10197133, “Synthesis, Computational Insights, and Evaluation of Novel Sigma Receptors Ligands” (ACS Chemical Neuroscience, 2023):
# “Also recorded” adds a separate entry of the source.
# Tested on: capsaicin-induced mechanical hypersensitivity in mice
# Test: Capsaicin-induced secondary mechanical hypersensitivity (allodynia)
# Format: in vivo, female CD1 mice
# Settings: 4b 2.5–10 mg/kg s.c. associated with BD-1063 40 mg/kg s.c.
# Experimental: We used capsaicin-induced secondary hypersensitivity (allodynia) as a pain model. It has been described that the increase in mechanical sensitivity in the area surrounding capsaicin injection (area of secondary allodynia) is due to central sensitization, which is a relevant process for chronic pain development and maintenance.[48]
# Experiments were performed in female CD1 mice (Charles River, Barcelona, Spain) weighing 25–30 g. The mice were acclimated in our animal facilities for at least 1 week before testing and housed in a room under controlled environmental conditions: 12/12 h day/night cycle, air replacement every 20 min, and regulated temperature (22 ± 2 °C). The animals were fed a standard laboratory diet (Harlan Teklad Research Diet, Madison, Wisconsin) and tap water ad libitum until the beginning of the experiments. Testing was always performed from 9.00 to 15.00 h and randomly throughout the oestrous cycle. Animal care was made in accordance with institutional (Research Ethics Committee of the University of Granada, Spain), regional (Junta de Andalucía, Spain), and international standards (European Communities Council Directive 2010/63).
# As selective S1R drugs, we used the S1R antagonist BD-1063 (1-[2-(3,4-dichlorophenyl)ethyl]-4-methylpiperazine dihydrochloride) and the S1R agonist PRE-084 (2-(4-morpholinethyl)-1-phenyl cyclohexane carboxylate hydrochloride) (both provided by Tocris Cookson, Bristol, U.K.).[57] The standard or experimental compounds were dissolved in 5% DMSO (Merck KGaA, Darmstadt, Germany) in physiological sterile saline (0.9% NaCl). They were prepared immediately before the start of the experiments and injected s.c. in a volume of 5 mL/kg into the interscapular area.
# To test for the antiallodynic effects of BD-1063, 4b, 5b, or 8f, they were administered 30 min before the injection of capsaicin, used as the chemical algogen. To test the effects of PRE-084 or 4b on the antiallodynia induced by BD-1063, 8f, or 5b, the former were administered 5 min before the latter. When the effect of the association of several drugs was assessed, each injection was performed in different areas of the interscapular zone to avoid mixture of the drug solutions and any physicochemical interaction between them.
# Capsaicin (Sigma-Aldrich Química S.A.) was dissolved in 1% DMSO in physiological sterile saline to a concentration of 0.05 μg/μL (i.e., 1 μg per mouse). Capsaicin solution was injected intraplantarly (i.pl.) into the right hind paw proximate to the heel, in a volume of 20 μL using a 1710 TLL Hamilton microsyringe (Teknokroma, Barcelona, Spain) with a 30^1/2-gauge needle. Control animals were injected with the same volume of the vehicle of capsaicin.
# Animals were placed for 2 h in individual black-walled test compartments, which were situated on an elevated mesh-bottom platform with a 0.5-cm^2 grid to provide access to the ventral surface of the hind paws. Punctate mechanical stimulation was applied with a Dynamic Plantar Aesthesiometer (Ugo Basile, Varese, Italy) 15 min after capsaicin or saline administration (i.e., 45 min after the injection of the experimental drug). Briefly, a nonflexible filament (0.5 mm diameter) was electronically driven into the ventral side of the right hind paw (which was previously injected with capsaicin or vehicle) at least 5 mm away from the site of the injection toward the fingers. The intensity of the stimulation was fixed at 0.5 g force, as described previously.[49],[50] When a paw withdrawal response occurred, the stimulus was automatically terminated and the response latency was recorded. The filament was applied three times at intervals of 0.5 min, and the mean value of the three trials was considered the withdrawal latency time of the animal.
row,SMILES,effect on the antiallodynic effect of BD-1063
1,"c1ccc(CCN2CC3(CCN(Cc4ccccc4)CC3)C2)cc1 [4b, 7-Benzyl-2-phenethyl-2,7-diazaspiro[3.5]nonane]",fully reverse the antiallodynic effect of BD-1063

# Same assay, conditions: PRE-084 32 mg/kg s.c. 5 min before; BD-1063 40 mg/kg, 8f and 5b 20 mg/kg s.c.
row,SMILES,antiallodynic effect when associated with the S1R agonist PRE-084
1,"O=C(Cc1ccccc1)N1CCC2(CC1)CN(CCc1ccccc1)C2 [5b, 1-(2-Phenethyl-2,7-diazaspiro[3.5]nonan-7-yl)-2-phenylethan-1-one]",abolish the antiallodynic effect; also recorded: completely reversed their antiallodynic action
2,"c1ccc(CCCN2CCCC3CN(Cc4ccccc4)CC32)cc1 (centres unmarked) [8f, 6-Benzyl-1-(3-phenylpropyl)octahydro-1H-pyrrolo[3,4-b]pyridine]",abolish the antiallodynic effect; also recorded: completely reversed their antiallodynic action
3,"CN1CCN(CCc2ccc(Cl)c(Cl)c2)CC1.Cl.Cl [BD-1063, 1-[2-(3,4-dichlorophenyl)ethyl]-4-methylpiperazine dihydrochloride, reference compound]",abolish the antiallodynic effect

# Same assay, conditions: concluded from the capsaicin model
row,SMILES,S1R functional profile in vivo
1,"c1ccc(CCN2CC3(CCN(Cc4ccccc4)CC3)C2)cc1 [4b, 7-Benzyl-2-phenethyl-2,7-diazaspiro[3.5]nonane]",S1R agonistic in vivo effect
2,"O=C(Cc1ccccc1)N1CCC2(CC1)CN(CCc1ccccc1)C2 [5b, 1-(2-Phenethyl-2,7-diazaspiro[3.5]nonan-7-yl)-2-phenylethan-1-one]",S1R antagonistic in vivo effect
3,"c1ccc(CCCN2CCCC3CN(Cc4ccccc4)CC32)cc1 (centres unmarked) [8f, 6-Benzyl-1-(3-phenylpropyl)octahydro-1H-pyrrolo[3,4-b]pyridine]",S1R antagonistic in vivo effect

# Same assay, conditions: s.c., 30 min before capsaicin 1 μg i.pl.; paw withdrawal latency at 0.5 g force; 4b 5–20 mg/kg; PRE-084 32 mg/kg
row,SMILES,"antiallodynic effect, compound administered alone"
1,"c1ccc(CCN2CC3(CCN(Cc4ccccc4)CC3)C2)cc1 [4b, 7-Benzyl-2-phenethyl-2,7-diazaspiro[3.5]nonane]",completely devoid of antiallodynic effect; also recorded: no antiallodynic effect
2,"O=C(Cc1ccccc1)N1CCC2(CC1)CN(CCc1ccccc1)C2 [5b, 1-(2-Phenethyl-2,7-diazaspiro[3.5]nonan-7-yl)-2-phenylethan-1-one]",mimicked the effect of the known S1R antagonist
3,"c1ccc(CCCN2CCCC3CN(Cc4ccccc4)CC32)cc1 (centres unmarked) [8f, 6-Benzyl-1-(3-phenylpropyl)octahydro-1H-pyrrolo[3,4-b]pyridine]",mimicked the effect of the known S1R antagonist
4,"CN1CCN(CCc2ccc(Cl)c(Cl)c2)CC1.Cl.Cl [BD-1063, 1-[2-(3,4-dichlorophenyl)ethyl]-4-methylpiperazine dihydrochloride, reference compound]",full and dose-dependent reduction of mechanical hypersensitivity

# Same assay, conditions: s.c., capsaicin 1 μg i.pl., mice
row,SMILES,dose reaching full reversal of mechanical hypersensitivity (maximum antiallodynic effect) [mg/kg]
1,"O=C(Cc1ccccc1)N1CCC2(CC1)CN(CCc1ccccc1)C2 [5b, 1-(2-Phenethyl-2,7-diazaspiro[3.5]nonan-7-yl)-2-phenylethan-1-one]",20
2,"c1ccc(CCCN2CCCC3CN(Cc4ccccc4)CC32)cc1 (centres unmarked) [8f, 6-Benzyl-1-(3-phenylpropyl)octahydro-1H-pyrrolo[3,4-b]pyridine]",20
3,"CN1CCN(CCc2ccc(Cl)c(Cl)c2)CC1.Cl.Cl [BD-1063, 1-[2-(3,4-dichlorophenyl)ethyl]-4-methylpiperazine dihydrochloride, reference compound]",40

# Molecular target: T1, S1R (Rattus norvegicus, UniProt Q9R0C9)
# Test: S1R functional assay: S1R radioligand binding with or without phenytoin
# Set-up: incubating 200 μL of membrane preparation with 50 μL of 20 nM; from tissue; host or cells: membrane preparation
# Settings: >1 agonist, ≤1 antagonist
# Experimental: In order to further asses the functional profile of compounds 4b, 5b, and 8f, the well-established phenytoin-based functional assay was carried out.[52] Previous studies have shown that phenytoin, a low-potent allosteric modulator for the S1R, differentially modulates the affinity of S1R ligands depending on their agonist versus antagonist functionality.
# The functionality of compounds 4b, 5b, and 8f on S1R was determined using the same radiolabeled binding assay for the S1R in the presence of phenytoin. […] The final volume was 0.5 mL.
# T1 sequence (Q9R0C9 whole entry): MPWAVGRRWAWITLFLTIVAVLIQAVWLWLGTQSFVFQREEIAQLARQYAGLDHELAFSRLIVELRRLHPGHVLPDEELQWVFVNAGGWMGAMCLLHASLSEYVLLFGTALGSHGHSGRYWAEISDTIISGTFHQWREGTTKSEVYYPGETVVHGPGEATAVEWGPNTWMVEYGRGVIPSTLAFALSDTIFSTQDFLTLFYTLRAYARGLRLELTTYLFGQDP
row,ratio Ki (nM) control/+ phenythoin,SMILES
1,2.6,"c1ccc(CCN2CC3(CCN(Cc4ccccc4)CC3)C2)cc1 [4b, 7-Benzyl-2-phenethyl-2,7-diazaspiro[3.5]nonane]"
2,0.9,"O=C(Cc1ccccc1)N1CCC2(CC1)CN(CCc1ccccc1)C2 [5b, 1-(2-Phenethyl-2,7-diazaspiro[3.5]nonan-7-yl)-2-phenylethan-1-one]"
3,0.8,"c1ccc(CCCN2CCCC3CN(Cc4ccccc4)CC32)cc1 (centres unmarked) [8f, 6-Benzyl-1-(3-phenylpropyl)octahydro-1H-pyrrolo[3,4-b]pyridine]"
4,0.7,"CN1CCN(CCc2ccc(Cl)c(Cl)c2)CC1.Cl.Cl [BD-1063, 1-[2-(3,4-dichlorophenyl)ethyl]-4-methylpiperazine dihydrochloride, reference compound]"

# Same assay, conditions: concluded from Ki ratio control/with phenytoin
row,S1R functional profile in vitro (phenytoin assay),SMILES
1,agonist profile for the S1R,"c1ccc(CCN2CC3(CCN(Cc4ccccc4)CC3)C2)cc1 [4b, 7-Benzyl-2-phenethyl-2,7-diazaspiro[3.5]nonane]"
2,antagonists for the S1R,"O=C(Cc1ccccc1)N1CCC2(CC1)CN(CCc1ccccc1)C2 [5b, 1-(2-Phenethyl-2,7-diazaspiro[3.5]nonan-7-yl)-2-phenylethan-1-one]"
3,antagonists for the S1R,"c1ccc(CCCN2CCCC3CN(Cc4ccccc4)CC32)cc1 (centres unmarked) [8f, 6-Benzyl-1-(3-phenylpropyl)octahydro-1H-pyrrolo[3,4-b]pyridine]"

# Same assay, conditions: with phenytoin (20 μL of 25 mM in 0.5 mL), 120 min at 37 °C; read-out: Ki (nM) + phenythoin
row,Ki [nM],SMILES
1,1.2,"c1ccc(CCN2CC3(CCN(Cc4ccccc4)CC3)C2)cc1 [4b, 7-Benzyl-2-phenethyl-2,7-diazaspiro[3.5]nonane]"
2,14,"O=C(Cc1ccccc1)N1CCC2(CC1)CN(CCc1ccccc1)C2 [5b, 1-(2-Phenethyl-2,7-diazaspiro[3.5]nonan-7-yl)-2-phenylethan-1-one]"
3,12,"c1ccc(CCCN2CCCC3CN(Cc4ccccc4)CC32)cc1 (centres unmarked) [8f, 6-Benzyl-1-(3-phenylpropyl)octahydro-1H-pyrrolo[3,4-b]pyridine]"
4,10,"CN1CCN(CCc2ccc(Cl)c(Cl)c2)CC1.Cl.Cl [BD-1063, 1-[2-(3,4-dichlorophenyl)ethyl]-4-methylpiperazine dihydrochloride, reference compound]"

# Same assay, conditions: without phenytoin; read-out: Ki (nM) control
row,Ki [nM],SMILES
1,3.2,"c1ccc(CCN2CC3(CCN(Cc4ccccc4)CC3)C2)cc1 [4b, 7-Benzyl-2-phenethyl-2,7-diazaspiro[3.5]nonane]"
2,12,"O=C(Cc1ccccc1)N1CCC2(CC1)CN(CCc1ccccc1)C2 [5b, 1-(2-Phenethyl-2,7-diazaspiro[3.5]nonan-7-yl)-2-phenylethan-1-one]"
3,9.6,"c1ccc(CCCN2CCCC3CN(Cc4ccccc4)CC32)cc1 (centres unmarked) [8f, 6-Benzyl-1-(3-phenylpropyl)octahydro-1H-pyrrolo[3,4-b]pyridine]"
4,6.7,"CN1CCN(CCc2ccc(Cl)c(Cl)c2)CC1.Cl.Cl [BD-1063, 1-[2-(3,4-dichlorophenyl)ethyl]-4-methylpiperazine dihydrochloride, reference compound]"

# Molecular target: T1, S1R
# Test: S1R radioligand binding assay, [3H](+)-pentazocine, liver homogenates
# Set-up: from tissue; host or cells: rat liver homogenate (male Sprague-Dawley); species or system male Sprague-Dawley rats
# Settings: ratio of S2R Ki to S1R Ki
# Experimental: (§1) The Ki-values were calculated with the program GraphPad Prism 7.0 (GraphPad Software, San Diego, California). The Ki-values are given as mean value ± SD from at least two independent experiments performed in duplicate.
row,KiS2R/KiS1R (preference for S1R over S2R),SMILES
1,~10,"c1ccc(CCN2CC3(CCN(Cc4ccccc4)CC3)C2)cc1 [4b, 7-Benzyl-2-phenethyl-2,7-diazaspiro[3.5]nonane]"
2,7.8,"O=C(Cc1ccccc1)N1CCC2(CC1)CN(CCc1ccccc1)C2 [5b, 1-(2-Phenethyl-2,7-diazaspiro[3.5]nonan-7-yl)-2-phenylethan-1-one]"
3,16.5,"c1ccc(CCCN2CCCC3CN(Cc4ccccc4)CC32)cc1 (centres unmarked) [8f, 6-Benzyl-1-(3-phenylpropyl)octahydro-1H-pyrrolo[3,4-b]pyridine]"

# Same assay, conditions: read-out: Ki (nM) ± SD S1R
row,Ki [nM],SMILES
1,2.7 ± 0.3,"c1ccc(CCN2CC3(CCN(Cc4ccccc4)CC3)C2)cc1 [4b, 7-Benzyl-2-phenethyl-2,7-diazaspiro[3.5]nonane]"
2,13 ± 2.5,"O=C(Cc1ccccc1)N1CCC2(CC1)CN(CCc1ccccc1)C2 [5b, 1-(2-Phenethyl-2,7-diazaspiro[3.5]nonan-7-yl)-2-phenylethan-1-one]"
3,10 ± 1.6,"c1ccc(CCCN2CCCC3CN(Cc4ccccc4)CC32)cc1 (centres unmarked) [8f, 6-Benzyl-1-(3-phenylpropyl)octahydro-1H-pyrrolo[3,4-b]pyridine]"

# Molecular target: T2, S2R (Rattus norvegicus, UniProt Q5U3Y7)
# T2 construct: from tissue; host or cells: rat liver homogenate (male Sprague-Dawley)
# T2 sequence (Q5U3Y7 1-176): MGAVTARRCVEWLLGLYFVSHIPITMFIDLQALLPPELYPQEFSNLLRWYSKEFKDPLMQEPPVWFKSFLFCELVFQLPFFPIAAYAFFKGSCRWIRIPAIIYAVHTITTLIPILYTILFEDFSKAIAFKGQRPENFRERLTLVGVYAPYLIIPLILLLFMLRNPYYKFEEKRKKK
# Test: S2R radioligand binding assay, [3H]DTG with (+)-pentazocine as S1R masking agent, liver homogenates
# Set-up: species or system male Sprague-Dawley rats
# Settings: read-out: Ki (nM) ± SD S2R
# Experimental: as §1
row,Ki [nM],SMILES
1,27 ± 5.3,"c1ccc(CCN2CC3(CCN(Cc4ccccc4)CC3)C2)cc1 [4b, 7-Benzyl-2-phenethyl-2,7-diazaspiro[3.5]nonane]"
2,102 ± 26,"O=C(Cc1ccccc1)N1CCC2(CC1)CN(CCc1ccccc1)C2 [5b, 1-(2-Phenethyl-2,7-diazaspiro[3.5]nonan-7-yl)-2-phenylethan-1-one]"
3,165 ± 36,"c1ccc(CCCN2CCCC3CN(Cc4ccccc4)CC32)cc1 (centres unmarked) [8f, 6-Benzyl-1-(3-phenylpropyl)octahydro-1H-pyrrolo[3,4-b]pyridine]"
